{
  "source": "ChEMBL document CHEMBL4390652",
  "about": "“Design, biological evaluation and X-ray crystallography of nanomolar multifunctional ligands targeting simultaneously acetylcholinesterase and glycogen synthase kinase-3” (Eur J Med Chem, 2019)",
  "key": {"MDCK-MDR1": {"system": "MDCK-MDR1", "assay": "Cytotoxicity against MDCK2-MDR1 cells assessed as reduction in cell viability at 75 uM incubated for 2 hrs by MTT assay", "format": "ADME, cell-based, Canis lupus familiaris", "conditions": "dog, mdck-mdr1, 2 h"}, "[1]": {"target": "Tyrosine-protein kinase ABL1 (Homo sapiens) (UniProt P00519)", "assay": "Binding affinity to wild-type human phosphorylated ABL1 (S229 to K512 residues) expressed in mammalian expression system assessed as residual binding level at 10 uM by Kinomescan method relative to control"}, "[2]": {"target": "Cyclin-dependent kinase-like 2 (Homo sapiens) (UniProt Q92772)", "assay": "Binding affinity to wild-type human partial length CDKL2 (M1 to D327 residues) expressed in bacterial expression system assessed as residual binding level at 10 uM by Kinomescan method relative to control"}, "[3]": {"target": "Citron Rho-interacting kinase (Homo sapiens) (UniProt O14578)", "assay": "Binding affinity to wild-type human partial length CIT (M68 to E432 residues) expressed in bacterial expression system assessed as residual binding level at 10 uM by Kinomescan method relative to control"}, "[4]": {"target": "Tyrosine-protein kinase CSK (Homo sapiens) (UniProt P41240)", "assay": "Binding affinity to wild-type human full length CSK (M1 to L450 residues) expressed in bacterial expression system assessed as residual binding level at 10 uM by Kinomescan method relative to control"}, "[5]": {"target": "Vascular endothelial growth factor receptor 3 (Homo sapiens) (UniProt P35916)", "sequence (P35916 whole entry, the tested form may be a part)": "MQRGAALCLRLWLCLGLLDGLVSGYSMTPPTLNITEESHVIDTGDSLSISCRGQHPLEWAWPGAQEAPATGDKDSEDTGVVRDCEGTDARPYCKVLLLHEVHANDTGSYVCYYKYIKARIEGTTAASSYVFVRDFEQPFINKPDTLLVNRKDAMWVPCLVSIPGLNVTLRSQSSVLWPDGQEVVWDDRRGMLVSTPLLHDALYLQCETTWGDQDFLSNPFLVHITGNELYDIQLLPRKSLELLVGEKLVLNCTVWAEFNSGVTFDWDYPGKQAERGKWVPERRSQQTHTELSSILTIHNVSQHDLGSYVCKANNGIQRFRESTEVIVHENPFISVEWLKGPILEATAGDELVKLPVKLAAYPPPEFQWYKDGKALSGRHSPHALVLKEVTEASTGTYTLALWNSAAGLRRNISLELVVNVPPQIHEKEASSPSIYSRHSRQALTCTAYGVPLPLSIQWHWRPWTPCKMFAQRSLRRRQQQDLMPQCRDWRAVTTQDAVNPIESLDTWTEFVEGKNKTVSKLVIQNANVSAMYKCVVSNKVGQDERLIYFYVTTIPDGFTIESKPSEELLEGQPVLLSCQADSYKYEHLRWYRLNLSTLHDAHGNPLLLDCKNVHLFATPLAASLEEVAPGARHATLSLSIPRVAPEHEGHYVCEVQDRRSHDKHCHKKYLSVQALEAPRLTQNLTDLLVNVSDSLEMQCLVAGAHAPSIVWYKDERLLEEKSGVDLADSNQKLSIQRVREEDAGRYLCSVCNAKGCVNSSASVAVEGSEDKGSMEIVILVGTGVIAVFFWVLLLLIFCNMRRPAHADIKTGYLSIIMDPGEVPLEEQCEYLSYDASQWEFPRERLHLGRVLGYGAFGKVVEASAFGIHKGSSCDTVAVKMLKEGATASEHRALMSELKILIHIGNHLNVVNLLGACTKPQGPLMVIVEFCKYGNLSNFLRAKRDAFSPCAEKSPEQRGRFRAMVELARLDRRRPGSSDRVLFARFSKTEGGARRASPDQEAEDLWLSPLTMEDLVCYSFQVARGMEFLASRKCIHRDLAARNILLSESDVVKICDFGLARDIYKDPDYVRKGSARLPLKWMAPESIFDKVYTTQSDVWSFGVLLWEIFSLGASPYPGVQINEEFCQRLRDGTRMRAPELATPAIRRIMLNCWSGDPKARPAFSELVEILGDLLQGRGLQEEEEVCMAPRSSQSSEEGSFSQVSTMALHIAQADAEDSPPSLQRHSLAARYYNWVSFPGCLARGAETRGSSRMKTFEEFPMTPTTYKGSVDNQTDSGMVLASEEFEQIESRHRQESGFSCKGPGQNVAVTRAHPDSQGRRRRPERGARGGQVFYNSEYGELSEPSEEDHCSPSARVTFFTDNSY", "assay": "Binding affinity to wild-type human partial length FLT4 (E821 to E1196 residues) expressed in bacterial expression system assessed as residual binding level at 10 uM by Kinomescan method relative to control"}, "[6]": {"target": "Insulin-like growth factor 1 receptor (Homo sapiens) (UniProt P08069)", "assay": "Binding affinity to wild-type human partial length IGF1R (L972 to D1294 residues) expressed in bacterial expression system assessed as residual binding level at 10 uM by Kinomescan method relative to control"}, "[7]": {"target": "Inhibitor of nuclear factor kappa-B kinase subunit epsilon (Homo sapiens) (UniProt Q14164)", "assay": "Binding affinity to wild-type human full length IKK-epsilon (M1 to V716 residues) expressed in mammalian expression system assessed as residual binding level at 10 uM by Kinomescan method relative to control"}, "[8]": {"target": "Mast/stem cell growth factor receptor Kit (Homo sapiens) (UniProt P10721)", "sequence (P10721 whole entry, the tested form may be a part)": "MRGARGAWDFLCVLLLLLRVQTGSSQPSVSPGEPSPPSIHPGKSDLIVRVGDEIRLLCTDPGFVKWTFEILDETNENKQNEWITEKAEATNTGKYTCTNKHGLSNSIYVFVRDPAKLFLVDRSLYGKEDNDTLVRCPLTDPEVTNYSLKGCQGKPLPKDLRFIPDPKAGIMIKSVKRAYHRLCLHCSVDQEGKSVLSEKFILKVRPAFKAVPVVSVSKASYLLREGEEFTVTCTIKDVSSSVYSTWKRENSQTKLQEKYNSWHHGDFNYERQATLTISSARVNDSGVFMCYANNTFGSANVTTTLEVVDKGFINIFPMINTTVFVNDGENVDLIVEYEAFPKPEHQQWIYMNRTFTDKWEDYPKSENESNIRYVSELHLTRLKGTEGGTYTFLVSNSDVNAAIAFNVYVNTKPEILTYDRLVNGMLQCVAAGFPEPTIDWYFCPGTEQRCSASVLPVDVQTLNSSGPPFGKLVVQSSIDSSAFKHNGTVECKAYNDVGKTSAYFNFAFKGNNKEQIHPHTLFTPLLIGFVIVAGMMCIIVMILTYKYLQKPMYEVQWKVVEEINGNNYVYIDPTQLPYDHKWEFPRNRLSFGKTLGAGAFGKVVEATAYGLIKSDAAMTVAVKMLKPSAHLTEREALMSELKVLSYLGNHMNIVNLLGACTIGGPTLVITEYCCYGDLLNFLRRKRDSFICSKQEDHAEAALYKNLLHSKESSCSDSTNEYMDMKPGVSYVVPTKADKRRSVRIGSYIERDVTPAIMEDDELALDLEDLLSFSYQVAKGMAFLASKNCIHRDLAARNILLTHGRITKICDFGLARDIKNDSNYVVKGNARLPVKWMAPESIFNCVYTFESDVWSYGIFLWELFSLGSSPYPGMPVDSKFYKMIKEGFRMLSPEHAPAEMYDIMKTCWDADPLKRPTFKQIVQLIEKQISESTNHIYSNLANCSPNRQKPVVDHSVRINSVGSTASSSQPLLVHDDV", "assay": "Binding affinity to wild-type human partial length KIT (I571 to D952 residues) expressed in bacterial expression system assessed as residual binding level at 10 uM by Kinomescan method relative to control"}, "[9]": {"system": "Mast/stem cell growth factor receptor Kit (Homo sapiens), P10721 [L576P]", "sequence (P10721 whole entry L576P, the tested form may be a part)": "as the sequence (P10721 whole entry, the tested form may be a part) above, with L576P counted along it", "assay": "Binding affinity to human partial length KIT L576P mutant (Y545 to D952 residues) expressed in bacterial expression system assessed as residual binding level at 10 uM by Kinomescan method relative to control"}, "[10]": {"target": "Dual specificity mitogen-activated protein kinase kinase 3 (Homo sapiens) (UniProt P46734)", "sequence (P46734 whole entry, the tested form may be a part)": "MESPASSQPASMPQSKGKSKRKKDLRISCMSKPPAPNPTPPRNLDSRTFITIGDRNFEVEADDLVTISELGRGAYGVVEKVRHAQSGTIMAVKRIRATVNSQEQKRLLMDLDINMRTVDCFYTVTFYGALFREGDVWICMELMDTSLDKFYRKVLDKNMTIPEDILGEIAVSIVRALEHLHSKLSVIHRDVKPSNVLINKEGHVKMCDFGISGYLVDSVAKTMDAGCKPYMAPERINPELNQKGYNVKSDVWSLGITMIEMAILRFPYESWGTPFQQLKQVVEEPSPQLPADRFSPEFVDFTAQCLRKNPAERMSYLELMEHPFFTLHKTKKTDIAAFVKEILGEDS", "assay": "Binding affinity to wild-type human full length MEK3 (M1 to S318 residues) expressed in mammalian expression system assessed as residual binding level at 10 uM by Kinomescan method relative to control"}, "[11]": {"target": "Misshapen-like kinase 1 (Homo sapiens) (UniProt Q8N4C8)", "assay": "Binding affinity to wild-type human partial length MINK (M1 to K312 residues) expressed in mammalian expression system assessed as residual binding level at 10 uM by Kinomescan method relative to control"}, "[12]": {"target": "MAP kinase-interacting serine/threonine-protein kinase 1 (Homo sapiens) (UniProt Q9BUB5)", "assay": "Binding affinity to wild-type human full length MKNK1 (M1 to L424 residues) expressed in mammalian expression system assessed as residual binding level at 10 uM by Kinomescan method relative to control"}, "[13]": {"target": "MAP kinase-interacting serine/threonine-protein kinase 2 (Homo sapiens) (UniProt Q9HBH9)", "assay": "Binding affinity to wild-type human partial length MKNK2 (G63 to S388 residues) expressed in mammalian expression system assessed as residual binding level at 10 uM by Kinomescan method relative to control"}, "[14]": {"target": "Serine/threonine-protein kinase 4 (Homo sapiens) (UniProt Q13043)", "assay": "Binding affinity to wild-type human full length MST1 (M1 to F487 residues) expressed in bacterial expression system assessed as residual binding level at 10 uM by Kinomescan method relative to control"}, "[15]": {"target": "Serine/threonine-protein kinase 24 (Homo sapiens) (UniProt Q9Y6E0)", "sequence (Q9Y6E0 whole entry, looked up, the tested form may be a part)": "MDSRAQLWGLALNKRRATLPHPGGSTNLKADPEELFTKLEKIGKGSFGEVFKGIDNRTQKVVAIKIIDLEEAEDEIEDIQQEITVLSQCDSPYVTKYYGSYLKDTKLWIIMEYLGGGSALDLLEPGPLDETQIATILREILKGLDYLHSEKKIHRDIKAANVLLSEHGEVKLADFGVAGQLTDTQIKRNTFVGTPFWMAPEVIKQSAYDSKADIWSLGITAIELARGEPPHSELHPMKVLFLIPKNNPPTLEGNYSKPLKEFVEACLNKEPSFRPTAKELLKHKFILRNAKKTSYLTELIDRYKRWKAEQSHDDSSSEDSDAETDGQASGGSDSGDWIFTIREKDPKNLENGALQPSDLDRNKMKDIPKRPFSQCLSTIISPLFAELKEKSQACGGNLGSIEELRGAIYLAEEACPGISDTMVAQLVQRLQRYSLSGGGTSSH", "assay": "Binding affinity to wild-type human partial length MST3 (A30 to S311 residues) expressed in bacterial expression system assessed as residual binding level at 10 uM by Kinomescan method relative to control"}, "[16]": {"target": "Myosin-IIIa (Homo sapiens) (UniProt Q8NEV4)", "assay": "Binding affinity to wild-type human partial length MYO3A (M1 to K338 residues) expressed in bacterial expression system assessed as residual binding level at 10 uM by Kinomescan method relative to control"}, "[17]": {"target": "Myosin-IIIb (Homo sapiens) (UniProt Q8WXR4)", "assay": "Binding affinity to wild-type human partial length MYO3B (M1 to D357 residues) expressed in bacterial expression system assessed as residual binding level at 10 uM by Kinomescan method relative to control"}, "[18]": {"target": "Serine/threonine-protein kinase 38 (Homo sapiens) (UniProt Q15208)", "sequence (Q15208 2-465 limits assumed)": "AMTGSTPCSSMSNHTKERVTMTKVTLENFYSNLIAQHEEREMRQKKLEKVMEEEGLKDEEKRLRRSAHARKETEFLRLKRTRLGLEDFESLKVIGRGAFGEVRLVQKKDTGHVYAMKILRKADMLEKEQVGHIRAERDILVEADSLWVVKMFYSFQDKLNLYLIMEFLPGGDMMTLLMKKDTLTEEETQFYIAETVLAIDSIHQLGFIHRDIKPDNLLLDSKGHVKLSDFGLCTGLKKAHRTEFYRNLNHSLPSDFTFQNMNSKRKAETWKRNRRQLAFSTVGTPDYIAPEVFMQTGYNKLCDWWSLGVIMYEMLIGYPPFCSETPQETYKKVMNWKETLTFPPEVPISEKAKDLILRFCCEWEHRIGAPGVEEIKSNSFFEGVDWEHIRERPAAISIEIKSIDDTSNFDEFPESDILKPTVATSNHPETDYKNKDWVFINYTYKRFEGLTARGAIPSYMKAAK", "assay": "Binding affinity to wild-type human partial length NDR1 (N33 to E449 residues) expressed in mammalian expression system assessed as residual binding level at 10 uM by Kinomescan method relative to control"}, "[19]": {"target": "Serine/threonine-protein kinase Nek3 (Homo sapiens) (UniProt P51956)", "assay": "Binding affinity to wild-type human full length NEK3 (M1 to R506 residues) expressed in mammalian expression system assessed as residual binding level at 10 uM by Kinomescan method relative to control"}, "[20]": {"target": "Serine/threonine-protein kinase PLK4 (Homo sapiens) (UniProt O00444)", "sequence (O00444 whole entry, the tested form may be a part)": "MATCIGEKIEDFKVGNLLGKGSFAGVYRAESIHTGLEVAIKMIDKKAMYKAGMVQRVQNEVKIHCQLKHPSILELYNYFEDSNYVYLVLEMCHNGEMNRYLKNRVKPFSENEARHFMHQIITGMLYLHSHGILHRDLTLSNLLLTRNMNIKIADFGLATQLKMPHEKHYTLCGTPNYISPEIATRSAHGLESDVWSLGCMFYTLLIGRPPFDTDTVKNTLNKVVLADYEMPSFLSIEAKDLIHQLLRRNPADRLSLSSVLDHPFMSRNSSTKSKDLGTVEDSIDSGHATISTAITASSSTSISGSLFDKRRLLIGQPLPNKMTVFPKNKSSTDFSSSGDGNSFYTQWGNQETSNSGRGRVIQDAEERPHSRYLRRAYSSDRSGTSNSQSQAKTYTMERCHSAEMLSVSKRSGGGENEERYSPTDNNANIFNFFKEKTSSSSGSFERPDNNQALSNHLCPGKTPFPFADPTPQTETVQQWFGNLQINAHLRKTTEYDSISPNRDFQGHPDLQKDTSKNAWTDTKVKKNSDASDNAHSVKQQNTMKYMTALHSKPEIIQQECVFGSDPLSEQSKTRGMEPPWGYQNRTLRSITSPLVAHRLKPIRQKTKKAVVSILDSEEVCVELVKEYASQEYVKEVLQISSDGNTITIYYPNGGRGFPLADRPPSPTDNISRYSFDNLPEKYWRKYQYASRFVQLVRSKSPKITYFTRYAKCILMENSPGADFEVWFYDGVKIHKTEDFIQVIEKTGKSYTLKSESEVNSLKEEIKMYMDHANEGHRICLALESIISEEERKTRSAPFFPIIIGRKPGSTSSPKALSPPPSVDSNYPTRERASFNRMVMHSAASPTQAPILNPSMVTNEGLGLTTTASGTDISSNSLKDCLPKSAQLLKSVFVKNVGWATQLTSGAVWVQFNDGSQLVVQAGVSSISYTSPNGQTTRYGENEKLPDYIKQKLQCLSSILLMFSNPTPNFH", "assay": "Binding affinity to wild-type human partial length PLK4 (M1 to S273 residues) expressed in mammalian expression system assessed as residual binding level at 10 uM by Kinomescan method relative to control"}, "[21]": {"target": "Receptor-interacting serine/threonine-protein kinase 1 (Homo sapiens) (UniProt Q13546)", "assay": "Binding affinity to wild-type human partial length RIPK1 (M1 to K305 residues) expressed in bacterial expression system assessed as residual binding level at 10 uM by Kinomescan method relative to control"}, "[22]": {"target": "Rho-associated protein kinase 1 (Homo sapiens) (UniProt Q13464)", "assay": "Binding affinity to wild-type human partial length ROCK1 (M1 to R415 residues) expressed in mammalian expression system assessed as residual binding level at 10 uM by Kinomescan method relative to control"}, "[23]": {"target": "Serine/threonine-protein kinase Sgk2 (Homo sapiens) (UniProt Q9HBY8)", "sequence (Q9HBY8 whole entry, the tested form may be a part)": "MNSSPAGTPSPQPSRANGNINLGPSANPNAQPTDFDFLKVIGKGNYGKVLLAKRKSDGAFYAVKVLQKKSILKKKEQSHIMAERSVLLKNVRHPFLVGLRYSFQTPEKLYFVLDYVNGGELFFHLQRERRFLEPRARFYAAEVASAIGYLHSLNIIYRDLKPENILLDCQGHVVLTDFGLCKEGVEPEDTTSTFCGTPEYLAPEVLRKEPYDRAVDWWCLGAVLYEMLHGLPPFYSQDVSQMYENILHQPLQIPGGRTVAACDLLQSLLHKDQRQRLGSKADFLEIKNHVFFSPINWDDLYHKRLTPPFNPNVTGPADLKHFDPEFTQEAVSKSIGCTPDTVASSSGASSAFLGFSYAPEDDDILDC", "assay": "Binding affinity to wild-type human partial length SGK2 (L54 to C427 residues) expressed in mammalian expression system assessed as residual binding level at 10 uM by Kinomescan method relative to control"}, "[24]": {"target": "Serine/threonine-protein kinase WNK3 (Homo sapiens) (UniProt Q9BYP7)", "assay": "Binding affinity to wild-type human partial length WNK3 (M1 to D434 residues) expressed in mammalian expression system assessed as residual binding level at 10 uM by Kinomescan method relative to control"}},
  "data": [
    {"compound": "O=C(Nc1cc(-c2cn(CCNc3c4c(nc5ccccc35)CCCC4)nn2)ccn1)Nc1cccc2c1C1CCCCN1C2=O", "note": "(racemic)", "values": [
      {"measurement": "Activity", "setting": "MDCK-MDR1", "result": "Non-Toxic"},
      {"measurement": "Activity", "setting": "[1]", "result": 0.6, "unit": "%"},
      {"measurement": "Activity", "setting": "[2]", "result": 0.1, "unit": "%"},
      {"measurement": "Activity", "setting": "[3]", "result": 0.95, "unit": "%"},
      {"measurement": "Activity", "setting": "[4]", "result": 77, "unit": "%"},
      {"measurement": "Activity", "setting": "[5]", "result": 2.7, "unit": "%"},
      {"measurement": "Activity", "setting": "[6]", "result": 75, "unit": "%"},
      {"measurement": "Activity", "setting": "[7]", "result": 52, "unit": "%"},
      {"measurement": "Activity", "setting": "[8]", "result": 0.25, "unit": "%"},
      {"measurement": "Activity", "setting": "[9]", "result": 0, "unit": "%"},
      {"measurement": "Activity", "setting": "[10]", "result": 70, "unit": "%"},
      {"measurement": "Activity", "setting": "[11]", "result": 28, "unit": "%"},
      {"measurement": "Activity", "setting": "[12]", "result": 100, "unit": "%"},
      {"measurement": "Activity", "setting": "[13]", "result": 72, "unit": "%"},
      {"measurement": "Activity", "setting": "[14]", "result": 66, "unit": "%"},
      {"measurement": "Activity", "setting": "[15]", "result": 59, "unit": "%"},
      {"measurement": "Activity", "setting": "[16]", "result": 75, "unit": "%"},
      {"measurement": "Activity", "setting": "[17]", "result": 100, "unit": "%"},
      {"measurement": "Activity", "setting": "[18]", "result": 100, "unit": "%"},
      {"measurement": "Activity", "setting": "[19]", "result": 69, "unit": "%"},
      {"measurement": "Activity", "setting": "[20]", "result": 100, "unit": "%"},
      {"measurement": "Activity", "setting": "[21]", "result": 3.3, "unit": "%"},
      {"measurement": "Activity", "setting": "[22]", "result": 36, "unit": "%"},
      {"measurement": "Activity", "setting": "[23]", "result": 10, "unit": "%"},
      {"measurement": "Activity", "setting": "[24]", "result": 100, "unit": "%"}
    ]}
  ]
}
